Data published in ChEMBL document CHEMBL1201862, “PubChem BioAssay data set” (2004).
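Dose response: 5 concentrations. Exposure: 48 h. Format: 96-well plates. Endpoint: linear interpolation; highest concentration if not reached. Abbreviation: GI50, concentration required for 50% inhibition of growth.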 Active and inactive are the calls of the source. Cut-off read from the data, not from the text of the source: active = GI50 up to about 1.1 µM and inactive = higher.

Experiments:
Assay in all cases: inhibition of tumour cell growth, NCI panel, 48 h
[1] = system: TK-10
[2] = system: KM12
[3] = system: OVCAR-8
[4] = system: U-251
[5] = system: DMS-114
[6] = system: OVCAR-4
[7] = system: Malme-3M
[8] = system: HCT-15
[9] = system: NCI-H460
[10] = system: CAKI-1
[11] = system: SW-620
[12] = system: RPMI-8226
[13] = system: ACHN
[14] = system: SF-539
[15] = system: SR
[16] = system: A498

Row | Structure (SMILES) | GI50 [1] | GI50 [2] | GI50 [3] | GI50 [4] | GI50 [5] | GI50 [6] | GI50 [7] | GI50 [8] [µM] | GI50 [9] | GI50 [10] | GI50 [11] | GI50 [12] | GI50 [13] | GI50 [14] | GI50 [15] | GI50 [16]
1 | Cc1cc2c(c(C(=O)O)c1C)-c1cccc(F)c1C2=O | > 100 µM (inactive) | > 100 µM (inactive) | > 100 µM (inactive) | > 100 µM (inactive) | > 100 µM (inactive) | > 100 µM (inactive) | > 100 µM (inactive) | > 100 | > 100 µM (inactive) | > 100 µM (inactive) | > 100 µM (inactive) | > 100 µM (inactive) | > 100 µM (inactive) | – | – | –
2 | Cc1ccccc1-n1c(=O)sc2c(=O)n(-c3ccccc3)c(=S)[nH]c21 | – | > 100 µM (inactive) | > 100 µM (inactive) | > 100 µM (inactive) | 56.2 µM (inactive) | > 100 µM (inactive) | > 100 µM (inactive) | > 100 | > 100 µM (inactive) | > 100 µM (inactive) | > 100 µM (inactive) | > 100 µM (inactive) | > 100 µM (inactive) | > 100 µM (inactive) | > 100 µM (inactive) | > 100 µM (inactive)
3 | c1ccc(NCn2cnc3ccccc32)cc1 | > 100 µM (inactive) | > 100 µM (inactive) | > 100 µM (inactive) | > 100 µM (inactive) | > 100 µM (inactive) | > 100 µM (inactive) | > 100 µM (inactive) | 15.6 | > 100 µM (inactive) | – | 35.6 µM (inactive) | 25.9 µM (inactive) | 68.4 µM (inactive) | > 100 µM (inactive) | – | > 100 µM (inactive)
4 | O=C(CSSCC(=O)OCCS(=O)(=O)Nc1ccc(Br)cc1)OCCS(=O)(=O)Nc1ccc(Br)cc1 | 20.7 µM (inactive) | 13.3 µM (inactive) | 10.4 µM (inactive) | 21.7 µM (inactive) | 4.26 µM (inactive) | 8.75 µM (inactive) | 3.8 µM (inactive) | 14.5 | 14.5 µM (inactive) | 2.83 µM (inactive) | 8.45 µM (inactive) | 10 µM (inactive) | 18 µM (inactive) | 10.2 µM (inactive) | – | 11.8 µM (inactive)
5 | CN(C)CC[N+]1=Nc2cccc3cccc(c23)N1 | > 100 µM (inactive) | > 100 µM (inactive) | 43.6 µM (inactive) | > 68.5 µM (inactive) | > 64.3 µM (inactive) | 49.5 µM (inactive) | > 100 µM (inactive) | 62.7 | 16.9 µM (inactive) | 31 µM (inactive) | 20.2 µM (inactive) | 35.1 µM (inactive) | 28.1 µM (inactive) | 72.9 µM (inactive) | 19.8 µM (inactive) | 44.6 µM (inactive)
6 | COc1cc(/C=C2\[C@H]3c4c(c(OC)c(C)c(OC)c4OC)C[C@@H](C(=O)N2Cc2ccccc2)N3C(=O)OC(C)C)c(OC)c(C)c1OC | 79.3 µM (inactive) | 66.8 µM (inactive) | > 100 µM (inactive) | 53.1 µM (inactive) | 47.5 µM (inactive) | 69.3 µM (inactive) | 60.1 µM (inactive) | – | 5.31 µM (inactive) | – | 54 µM (inactive) | 27.2 µM (inactive) | > 100 µM (inactive) | > 100 µM (inactive) | 21.8 µM (inactive) | > 100 µM (inactive)
7 | Nc1ccc(C(=O)NN2C(=O)C(Cl)C2c2cccc(O)c2)cc1 (stereo not given) | 16.7 µM (inactive) | 10.7 µM (inactive) | 19.9 µM (inactive) | 12.5 µM (inactive) | 5.45 µM (inactive) | 16.7 µM (inactive) | 20.3 µM (inactive) | 12.7 | 14 µM (inactive) | 20.4 µM (inactive) | 19.2 µM (inactive) | 14.7 µM (inactive) | 17.5 µM (inactive) | 17.1 µM (inactive) | – | 35.2 µM (inactive)
8 | CCOC(=O)C(=Cc1cc(OC)ccc1OC)C(=O)OCC | > 10 µM (inactive) | 6.53 µM (inactive) | 4.72 µM (inactive) | 4.79 µM (inactive) | 2.81 µM (inactive) | 7.89 µM (inactive) | 10.9 µM (inactive) | 5.71 | 30.2 µM (inactive) | 13.6 µM (inactive) | 3.52 µM (inactive) | 3.44 µM (inactive) | 11.9 µM (inactive) | 4.1 µM (inactive) | – | 14.4 µM (inactive)
9 | CCOC(=O)/C(C#N)=C\Sc1ccccc1 | 32.4 µM (inactive) | 15.9 µM (inactive) | 13.7 µM (inactive) | 11.3 µM (inactive) | 13.6 µM (inactive) | 26.7 µM (inactive) | – | – | 26.4 µM (inactive) | 22.3 µM (inactive) | 25.9 µM (inactive) | 13.7 µM (inactive) | 17.1 µM (inactive) | 15.8 µM (inactive) | 4.71 µM (inactive) | –
